According to ChEMBL document CHEMBL1123466, “Selective thromboxane synthetase inhibitors. 3. 1H-imidazol-1-yl-substituted benzo[b]furan-, benzo[b]thiophene-, and indole-2- and -3-carboxylic acids” (J Med Chem, 1986):

target: T1, Cytochrome P450 11B1, mitochondrial (Rattus norvegicus, UniProt P15393); assay: Effect on adrenal 11-beta-hydroxylase activity at 10e-4 M; No significant effect
T1 sequence (P15393 whole entry): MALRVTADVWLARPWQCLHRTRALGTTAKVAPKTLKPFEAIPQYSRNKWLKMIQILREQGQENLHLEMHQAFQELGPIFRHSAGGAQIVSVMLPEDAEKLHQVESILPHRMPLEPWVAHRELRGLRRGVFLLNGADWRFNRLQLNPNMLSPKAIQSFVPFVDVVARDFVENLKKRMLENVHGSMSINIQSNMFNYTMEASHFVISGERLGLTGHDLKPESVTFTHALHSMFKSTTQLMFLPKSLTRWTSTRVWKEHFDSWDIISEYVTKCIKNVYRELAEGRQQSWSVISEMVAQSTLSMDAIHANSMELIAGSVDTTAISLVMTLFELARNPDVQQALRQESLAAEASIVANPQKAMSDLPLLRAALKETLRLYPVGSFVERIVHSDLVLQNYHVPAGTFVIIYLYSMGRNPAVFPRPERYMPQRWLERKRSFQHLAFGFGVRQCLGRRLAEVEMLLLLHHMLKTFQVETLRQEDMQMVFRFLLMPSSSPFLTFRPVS

SMILES | Effect
Cc1c(C(=O)O)sc2cc(Cn3ccnc3)ccc12 | No effect

target: Prostaglandin G/H synthase (cyclooxygenase) (Ovis aries) (UniProt P05979+P79208); assay: Effect on ram seminal vesicle cyclooxygenase activity at 10e-4 M; no significant effect; assay type: tissue-based
Sequence (P05979 whole entry, looked up): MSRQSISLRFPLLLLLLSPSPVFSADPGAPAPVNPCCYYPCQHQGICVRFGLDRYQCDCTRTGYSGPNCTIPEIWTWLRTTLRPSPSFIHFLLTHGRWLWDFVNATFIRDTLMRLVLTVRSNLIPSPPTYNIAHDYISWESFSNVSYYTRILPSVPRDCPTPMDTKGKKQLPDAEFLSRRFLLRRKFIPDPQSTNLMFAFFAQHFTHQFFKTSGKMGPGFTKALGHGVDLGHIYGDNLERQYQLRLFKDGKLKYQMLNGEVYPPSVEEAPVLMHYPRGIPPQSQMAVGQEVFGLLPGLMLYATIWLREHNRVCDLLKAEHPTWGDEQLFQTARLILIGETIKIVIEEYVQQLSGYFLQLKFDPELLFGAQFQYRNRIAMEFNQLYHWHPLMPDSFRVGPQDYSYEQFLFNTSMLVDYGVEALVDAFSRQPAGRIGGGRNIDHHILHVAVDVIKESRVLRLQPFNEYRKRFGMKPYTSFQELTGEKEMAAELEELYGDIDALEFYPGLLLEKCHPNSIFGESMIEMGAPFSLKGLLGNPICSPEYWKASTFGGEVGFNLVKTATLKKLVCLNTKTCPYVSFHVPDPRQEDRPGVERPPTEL
Sequence (P79208 whole entry, looked up): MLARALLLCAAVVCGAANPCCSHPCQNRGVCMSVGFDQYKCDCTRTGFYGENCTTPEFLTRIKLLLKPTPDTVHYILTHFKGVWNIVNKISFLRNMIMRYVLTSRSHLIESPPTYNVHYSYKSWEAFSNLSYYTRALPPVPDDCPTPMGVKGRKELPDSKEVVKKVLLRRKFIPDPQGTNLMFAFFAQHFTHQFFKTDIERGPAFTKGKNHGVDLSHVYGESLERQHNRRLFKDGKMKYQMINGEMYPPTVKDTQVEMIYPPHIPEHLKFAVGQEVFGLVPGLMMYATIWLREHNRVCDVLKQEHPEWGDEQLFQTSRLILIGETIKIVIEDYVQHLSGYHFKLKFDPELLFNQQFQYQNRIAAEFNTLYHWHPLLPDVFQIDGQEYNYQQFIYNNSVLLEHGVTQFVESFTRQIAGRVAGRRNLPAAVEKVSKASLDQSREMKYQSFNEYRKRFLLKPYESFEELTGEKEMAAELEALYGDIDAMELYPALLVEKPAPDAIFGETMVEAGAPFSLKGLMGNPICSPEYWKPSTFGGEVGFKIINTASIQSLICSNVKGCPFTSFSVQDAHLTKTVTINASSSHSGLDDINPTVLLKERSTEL

SMILES | Effect
Cc1c(C(=O)O)sc2cc(Cn3ccnc3)ccc12 | No effect

target: T2, Thromboxane-A synthase (Homo sapiens, UniProt P24557); assay: In vitro inhibition of thromboxane synthase from human platelets.
T2 sequence (P24557 whole entry): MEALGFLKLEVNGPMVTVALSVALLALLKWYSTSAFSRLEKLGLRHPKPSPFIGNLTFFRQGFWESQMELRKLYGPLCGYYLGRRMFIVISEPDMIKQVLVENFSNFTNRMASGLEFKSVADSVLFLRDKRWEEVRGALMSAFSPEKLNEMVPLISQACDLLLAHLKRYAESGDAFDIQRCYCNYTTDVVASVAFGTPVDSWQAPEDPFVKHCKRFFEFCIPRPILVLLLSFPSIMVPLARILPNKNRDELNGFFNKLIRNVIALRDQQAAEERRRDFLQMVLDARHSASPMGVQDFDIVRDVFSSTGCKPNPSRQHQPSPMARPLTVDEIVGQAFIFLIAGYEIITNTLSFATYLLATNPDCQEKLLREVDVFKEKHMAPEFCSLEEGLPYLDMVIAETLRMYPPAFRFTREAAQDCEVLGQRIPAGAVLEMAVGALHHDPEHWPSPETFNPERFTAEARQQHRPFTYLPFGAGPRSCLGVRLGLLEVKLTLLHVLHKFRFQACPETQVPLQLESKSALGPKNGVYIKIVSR

SMILES | IC50 [nM]
O=C(O)c1cc2cc(OCCn3ccnc3)ccc2s1 | 420
O=C(O)c1cc2cccc(Cn3ccnc3)c2s1 | 120
Cc1c(C(=O)O)sc2ccc(Cn3ccnc3)cc12 | 29
O=C(O)c1cc2c(O)cc(Cn3ccnc3)cc2s1 | 52
O=C(O)c1csc2c(Cn3ccnc3)cccc12 | 34
Cc1c(C(=O)O)sc2cc(OCCn3ccnc3)ccc12 | 140
O=C(O)c1csc2ccc(Cn3ccnc3)cc12 | 1700
O=C(O)COc1ccc(Cn2ccnc2)cc1 | 31
O=C(O)c1cc2ccc(Cn3ccnc3)cc2[nH]1 | 33
O=C(O)c1cc2cc(Cn3ccnc3)ccc2o1 | 34

These reach a lower IC50. Values come first.

IC50 [nM] | SMILES
21 | O=C(O)c1cc2cc(Cn3ccnc3)ccc2s1
5.2 | Cc1c(C(=O)O)sc2cc(Cn3ccnc3)ccc12
19 | O=C(O)c1csc2cc(Cn3ccnc3)ccc12
18 | O=C(O)c1cc2ccc(Cn3ccnc3)cc2s1
7.4 | O=C(O)c1sc2cc(Cn3ccnc3)ccc2c1Cl
5 | COc1cc(Cn2ccnc2)cc2sc(C(=O)O)cc12
5 | O=C(O)c1cc2cc(Cn3ccnc3)ccc2[nH]1
20 | O=C(O)c1cc2ccc(Cn3ccnc3)cc2o1

test system: Prostacyclin synthase (Sus scrofa); assay: Effect on porcine aorta prostacyclin (PGI-2) synthase activity at 10e-4 M; No significant effect

SMILES | Effect
Cc1c(C(=O)O)sc2cc(Cn3ccnc3)ccc12 | No effect
